# According to patent US20200397852A1, “DOSING REGIMENS FOR CELIAC DISEASE” (ImmusanT, Inc., priority 2017, published 2020):
# Like-named read-outs stand apart in the source and are kept apart here. Where a SMILES comes first, the peptide text is derived from it. [ ]: non-standard residue; d: D form. pGlu = O=C1CC[C@@H](C(=O)O)N1
# Columns and labels:
# [1] = Plasma concentrations of Nexvax2 peptides (UHPLC-MS/MS), pre-treatment and 45 minutes post-treatment; assay type: in vivo, human; details: 45 minutes after treatment at levels above 300 μg; almost all participants; LLOQ 2 ng/mL
# Experimental: • Weekly Gastrointestinal Symptom Rating Scale (GSRS) scores, and relative change in plasma cytokine levels 4 hours after 150 microgram and higher doses. Plasma concentrations pre- and 45 min post-dose, and villous height to crypt depth ratio (VH:CrD) in 2nd part duodenal biopsies were assessed in Cohort 3.
# Pharmacodynamics assessments included a 38plex assay to profile cytokine and chemokine concentrations in plasma before and up to 10 hours post-treatment at visits corresponding to administration of Nexvax2 at the previously determined maximum tolerated dose (150 μg) and at each of the higher dose levels. The percentage of leukocytes in whole blood that corresponded to T cells or helper, cytotoxic, regulatory, or activated (CCR6-positive) T cell subsets was estimated using epigenetic cell counting before and after dosing during the treatment period at times indicated. Pharmacokinetics of the three constituent peptides in Nexvax2 were assessed pre-treatment and 45 minutes post-treatment in cohort 3 at visits corresponding to dose levels 300 μg and above. Serum levels of anti-Nexvax2 antibodies were also assessed in cohort 3 at times shown. A four-week observational period followed the end of treatment visit.
# Pharmacokinetics of Nexvax2 peptides was summarised by dose level and presented as mean (95% CI) plasma concentrations; correlation coefficients were used to compare the plasma concentrations of the Nexvax2 peptides. […] Data from cohorts 1 and 2 were analysed separately according to the Nexvax2 starting dose levels of 3 μg or 30 μg. […]
# Blood was collected 30 minutes before and 45 minutes after study drug administration. […] Charles River Laboratories Ashland, LLC (Ashland, Ohio, USA) measured the concentrations of NPL001, NPL002, and NPL003. […] Reconstituted sample extracts were analysed with a UHPLC-MS/MS assay using a Waters Acquity® UPLC Peptide BEH C18 Column, 300 Å, 1.7-μm particle-size, 2.1×50 mm column (Waters Corporation, Milford, Mass., USA). […]
# [2] = pH 7
# [3] = Solubility in normal saline at pH 7
Structure (SMILES),Plasma concentration versus limit of quantification [1],solubility [2] [mg/mL],solubility [3] [mg/mL]
"CC(C)C[C@H](NC(=O)[C@@H]1CCC(=O)N1)C(=O)N[C@@H](CCC(N)=O)C(=O)N1CCC[C@H]1C(=O)N[C@@H](Cc1ccccc1)C(=O)N1CCC[C@H]1C(=O)N[C@@H](CCC(N)=O)C(=O)N1CCC[C@H]1C(=O)N[C@@H](CCC(=O)O)C(=O)N[C@@H](CC(C)C)C(=O)N1CCC[C@H]1C(=O)N[C@@H](Cc1ccc(O)cc1)C(=O)N1CCC[C@H]1C(=O)N[C@@H](CCC(N)=O)C(=O)N1CCC[C@H]1C(=O)N[C@@H](CCC(N)=O)C(N)=O [NPL001, (pE)LQPFPQPELPYPQPQ-NH2] ([pGlu]LQPFPQPELPYPQPQ-NH2)",above the limit of quantification,> 50,
"NC(=O)CC[C@H](NC(=O)[C@H](Cc1c[nH]c2ccccc12)NC(=O)[C@@H]1CCCN1C(=O)[C@H](Cc1ccccc1)NC(=O)[C@@H]1CCCN1C(=O)[C@H](CCC(N)=O)NC(=O)[C@H](CCC(=O)O)NC(=O)[C@@H]1CCCN1C(=O)[C@H](CCC(N)=O)NC(=O)[C@@H]1CCCN1C(=O)[C@H](Cc1ccccc1)NC(=O)[C@@H]1CCCN1C(=O)[C@H](CCC(N)=O)NC(=O)[C@@H]1CCC(=O)N1)C(=O)N1CCC[C@H]1C(N)=O [NPL002, (pE)QPFPQPEQPFPWQP-NH2] ([pGlu]QPFPQPEQPFPWQP-NH2)",above the limit of quantification,,≤ 25
CC[C@H](C)[C@H](NC(=O)[C@@H]1CCCN1C(=O)[C@H](CCC(N)=O)NC(=O)[C@H](CCC(=O)O)NC(=O)[C@@H]1CCCN1C(=O)[C@@H]1CCC(=O)N1)C(=O)N1CCC[C@H]1C(=O)N[C@@H](CCC(=O)O)C(=O)N[C@@H](CCC(N)=O)C(=O)N1CCC[C@H]1C(=O)N[C@@H](CCC(N)=O)C(=O)N1CCC[C@H]1C(=O)N[C@@H](Cc1ccc(O)cc1)C(=O)N1CCC[C@H]1C(=O)N[C@@H](CCC(N)=O)C(=O)N[C@@H](CCC(N)=O)C(N)=O [NPL003],above the limit of quantification,,> 50
